Results on 4 compounds are retold here after patent US20130058998A1, “ENCAPSULATED N-ACETYLMANNOSAMINE OR N-ACETYLNEURAMINIC ACID TO INCREASE SIALYLATION” (United States of America as represented by the Secretary, …, priority 2011, published 2013).

One assay has as its system cultured cells. To be noted: Charter et al. 2000; cited from earlier work.
The subject of assay [1] is Gne-deficient mouse embryonic stem cells. To be noted: growth medium supplemented with ManNAc; Schwarzkopf et al. 2002; cited from earlier work.
The test system of assay [2] is HIBM Gne M712T mutated pups. The experiment in a line: Survival of mutant HIBM Gne M712T pups after treatment. Format: in vivo, mouse. To be noted: for survival of mutant pups at P5: Gne M712T mutant pups, untreated 8% survived; for survival rates: orally delivered in drinking water, -/- pups.
Where [3] appears, read: oral (not liposome-embedded), addition to drinking water.

Regarding `[N-]=[N+]=NCC(=O)N[C@@H]1C(O)O[C@H](CO)[C@@H](O)[C@@H]1O` (some centres unmarked) [ManNAz, N-azidoacetyl-mannosamine], the “incorporation of sialic acid analogs (SiaLev or SiaNAz) into cell surface glycoconjugates” value with cultured cells is listed as “resulted in incorporation of the downstream sialic acid analogs”.
Consider `CC(=O)CCC(=O)N[C@@H]1C(O)O[C@H](CO)[C@@H](O)[C@@H]1O` (some centres unmarked) [ManLev, N-levulinoylmannosamine], for which the “incorporation of sialic acid analogs (SiaLev or SiaNAz) into cell surface glycoconjugates” value in the assay on cultured cells is “resulted in incorporation of the downstream sialic acid analogs”.
As for `CC(=O)N[C@H]1[C@@H](O)[C@H](O)[C@@H](CO)O[C@H]1O` [ManNAc, N-acetyl-D-mannosamine], the “sialylation of hyposialylated cells” value in assay [1] is recorded as “became resialylated”. For the same compound, the “survival of mutant pups at P5” value turned out to be 8% in assay [2] (intravenous (IV) injection at P1, ManNAc-Lipoplex in 2 different mouse backgrounds) and 48% in assay [2] (setting [3]). Moreover, in assay [2], the survival rates was 48%.
Regarding `CC(=O)N[C@H]1[C@H]([C@H](O)[C@H](O)CO)OC(O)(C(=O)O)C[C@@H]1O` (some centres unmarked) [NANA, N-acetylneuraminic acid], in assay [2] (setting [3]), the “survival of mutant pups at P5” value stood at 10%. This compound displayed a survival rates in assay [2] of 10%.
